Test results published in patent US20240408053A1, “ENTERITIS-SUPPRESSING COMPOSITION” (KOBE GAKUIN EDUCATIONAL FOUNDATION, priority 2021, published 2024).

Columns and labels:
[1] = system: CYP2E1; assay: Western blotting of CYP2E1 in colon tissue; assay type: in vivo, mice; details: group ES: 2.0% v/v ethanol diet + 2.5 mg sesaminol per day oral, 2 weeks, vs group E
Source text: (§1) Chronic consumption of an excessive amount of ethanol has been reported to increase CYP2E1 and iNOS levels and cause ethanol-induced oxidative stress in the liver and other tissues. The nuclear factor erythroid 2-related factor 2/heme oxygenase-1 (Nrf2/HO-1) system has also been reported to be widely involved in the protection of cells from oxidative damage. Therefore, the expression levels of these proteins (CYP2E1, iNOS, and HO-1) in mouse colon tissue in the four groups (groups C, S, E, and ES) were examined by western blotting (WB).
(§2) A colon tissue sample (100 mg) was homogenized in 1 mL of an M-PER mammalian protein extraction reagent (Pierce) containing a diluent of a protease inhibitor cocktail (Nacalai Tesque, Inc.), and the resulting homogenate was centrifuged at 20,000× g at 4° C. for 15 minutes. The protein concentration of the supernatant was measured with a protein assay reagent (Bio-Rad Laboratories, Inc.), and equal amounts of proteins were subjected to SDS-PAGE. Electrophoresed proteins in the gel were transferred to a PVDF membrane, and the membrane was immersed in a blocking reagent (room temperature, overnight). The primary antibody (rabbit polyclonal antibody) was then reacted. […] The band intensities were quantified with ImageJ.

[2] = system: Nrf2; assay: Nrf2 activation level in colon tissue extracts by ELISA; assay type: in vivo, mice; details: group ES: 2.0% v/v ethanol diet + 2.5 mg sesaminol per day oral, 2 weeks; group E significantly reduced
Experimental: The Nrf2 transcription factor is a master regulator of cytoprotection and promotes HO-1 gene expression in intracellular response to oxidative stress. Thus, in terms of the decrease in the HO-1 expression level in group E, the activation level of the Nrf2 transcription factor was examined. The protein amounts in the colon tissue extracts of the groups were adjusted to be equal, and Nrf2 activation levels in the colon tissue extracts were determined by ELISA.

[3] = system: secretory IgA; assay: Amount of secretory IgA in colon tissue of mice; assay type: in vivo; details: group ES: 2.0% v/v ethanol diet + 2.5 mg sesaminol per day oral, 4 weeks, vs group E; level similar to group C
Experimental: The effect of oral administration of sesaminol on the amount of mucus secretion in mouse colon was examined by measuring the amount of fecal mucin of the mice in each group (groups C, E, S, and ES) and the amount of secretory immunoglobulin A (sIgA) in the colon tissue of the mice.
After liquid nitrogen treatment, the amount of sigA in each colon tissue stored at −80° C. was quantified according to the product protocol of a reagent kit for measuring secretory IgA (QuickDetect (trademark) Secretory IgA (Mouse) ELISA kit, produced by BioVision, Inc.). The resulting value was converted to the secretory IgA concentration (ng/ml) per 100 mg of the tissue and evaluated.

[4] = system: HO-1; assay: Western blotting of HO-1 in colon tissue; assay type: in vivo, mice; details: group ES: 2.0% v/v ethanol diet + 2.5 mg sesaminol per day oral, 2 weeks; group E significantly lower than group C
Source text: as §1, §2

[5] = system: 8-OHdG; assay: 8-OHdG level in colon tissue (immunohistochemical staining, ELISA); assay type: in vivo, mice; details: group ES: 2.0% v/v ethanol diet + 2.5 mg sesaminol per day oral, 2 weeks, group E highest
Source text: The present inventors have previously reported that chronic oral administration of ethanol to mice increases oxidative stress in colon tissue (NPL 13). Therefore, in order to verify the effect of oral administration of sesaminol on oxidative stress in the colon induced by chronic oral consumption of ethanol, the levels of oxidative stress markers (8-hydroxy-2′-deoxyguanosine (8-OHdG), malondialdehyde (MDA), and 4-hydroxyalkenals (HAE)) were examined in colon tissue of the mice in groups C, S, E, and ES.
The level of 8-OHdG, which is an oxidative stress marker in tissue, was examined by immunohistochemical staining and ELISA.
Immunostained tissue specimens were prepared in the same manner as the method described above, except that the primary antibody was rabbit anti-8-OHdG monocolonal antibody.
A colon tissue sample (50 mg) was homogenized in 1 mL of DNAzol reagent, and the resulting homogenate was centrifuged at 20,000× g at 4° C. for […]. DNA was then isolated from the supernatant by ethanol precipitation and treated with an 8-OHdG assay preparation reagent set (FUJIFILM Wako Pure Chemical
Corporation). Equal amounts of the extracted DNA were used for analysis of the 8-OHdG level using an OxiSelect oxidative DNA damage ELISA kit (Cell Biolabs, Inc.).

[6] = system: occludin; assay: Western blotting of occludin in colon tissue; assay type: in vivo, mice; details: group ES: 2.0% v/v ethanol diet + 2.5 mg sesaminol per day oral, 2 weeks, vs group E; lower than group C
Source text: Acetaldehyde, which accumulates during ethanol metabolism, is known to disrupt intestinal tight junctions (TJs) via dissociation of colonic epithelium TJ proteins (ZO-1, occludin, and claudin-1) from the cytoskeleton. […] Therefore, whether oral administration of sesaminol would affect ethanol-induced intestinal barrier dysfunction was examined by analyzing the expression levels of colonic epithelial TJ proteins and the plasma LPS level in the mice in the four groups (groups C, S, E, and ES).
WB was performed in the same manner as in Example 4 above. The following primary antibodies were used. • Anti-mouse zonula occludens-1 protein (ZO-1) rabbit polyclonal antibody • Anti-mouse occludin rabbit polyclonal antibody • Anti-mouse claudin-1 rabbit polyclonal antibody

[7] = system: ethanol-induced lesions in mouse colon; assay: Microscopic evaluation of colon tissue (HE, TB, PAS, MUC2 staining), 4 weeks; assay type: in vivo, mice; details: group ES: 2.0% v/v ethanol diet + 2.5 mg sesaminol per day oral
Experimental: In order to verify the longer-term effect of oral administration of sesaminol on ethanol-induced oxidative stress in mouse colon, the colonic epithelium of the mice in each group (groups C, E, S, and ES) described in Example 7 was HE-stained, TB-stained, and periodic-acid-Schiff (PAS)-stained and observed under a microscope (FIGS. 10(A),(B), and (C)). Immunostaining with MUC2 polyclonal antibody was then performed (FIG. 10(D)). HE staining, TB staining, and immunostaining with MUC2 polyclonal antibody were performed in the same manner as in Example 2.
Colon tissue samples were each fixed in a 10% v/v neutral formaldehyde solution overnight at room temperature and paraffin-embedded. The colon tissue sections were then stained with PAS staining reagent for the detection of goblet cells. Each stained specimen was observed under a microscope and subjected to image analysis.

[8] = system: ethanol-induced lesion in mouse colon; assay: Microscopic evaluation of ethanol-induced lesion in mouse colon (HE, TB, MUC2 staining), 2 weeks; assay type: in vivo, mice
[9] = group ES: 2.0% v/v ethanol diet + 2.5 mg sesaminol per day oral, vs group E

Structure (SMILES): Oc1cc2c(cc1C1OCC3C(c4ccc5c(c4)OCO5)OCC13)OCO2 (stereo not shown) [Sesaminol]
- CYP2E1 expression level [1]: significantly lower than that in group E
- Nrf2 activation level [2]: recovered to a level similar to that in group C
- amount of secretory IgA in colon tissue [3]: significantly higher than that in group E
- HO-1 expression level [4]: recovery of the expression level
- 8-OHdG level in colon tissue [5]: next highest level
- expression level of occludin [6]: significantly higher than those in group E
- histological image of colon tissue (epithelium atrophy, goblet cells, mucus-secreting cells) [7]: tendency of returning to the histological image of group C
- degree of lesion in colonic epithelium [8, 9]: smaller degree of lesion compared with that observed in group E
- microscopic lesion score of colon tissue [8, 9]: significantly lower than that of group E
- lesions in colonic epithelium ([8]; group S: 2.5 mg sesaminol per day oral, no ethanol): No obvious lesions
